Data from patent US5135914A, “Substituted derivatives of 3-amino-2-hydroxypropionic acid as inhibitors of renin” (Warner-Lambert Company, priority 1988, dated 1992).

Molecular target: T1, renin (Homo sapiens, UniProt P00797)
T1 sequence (P00797 67-406): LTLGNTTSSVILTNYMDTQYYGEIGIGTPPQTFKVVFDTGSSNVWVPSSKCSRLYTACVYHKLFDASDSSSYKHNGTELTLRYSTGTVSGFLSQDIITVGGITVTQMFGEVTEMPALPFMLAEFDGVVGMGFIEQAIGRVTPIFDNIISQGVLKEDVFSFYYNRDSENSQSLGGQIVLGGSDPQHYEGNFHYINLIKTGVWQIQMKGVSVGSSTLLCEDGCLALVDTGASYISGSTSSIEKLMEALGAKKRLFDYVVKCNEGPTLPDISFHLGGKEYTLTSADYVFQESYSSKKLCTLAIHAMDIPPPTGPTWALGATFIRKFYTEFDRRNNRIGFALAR
Test: in vitro renin inhibition, radioimmunoassay for angiotensin I
Type: biochemical
Settings: incubated for two hours at 37° in the presence of angiotensinogen, read-out: IC50 (molar concentration of test compound causing a 50% inhibition of the renin activity)
Description: The compounds of the present invention are valuable because of their ability to inhibit renin in an in vitro assay. Activity is determined by a standard radioimmunoassay for angiotensin I. In the assay, the enzyme renin, incubated for two hours at 37° in the presence of a substrate, angiotensinogen, generates the product angiotensin I. Test compounds are added to the incubation mixture. Relative activity is reported as the IC50, which is the molar concentration of test compound causing a 50% inhibition of the renin activity.
The in vitro test employed is more fully described in "Methods in Enzymatic Analysis", Bergmeyer, J., and Grass, N., eds., 3rd edition Weinheim: Verlag Chemie, pp. 251-258 (1984).

IC50	SMILES
1000 nM	CC(C)C[C@H](NC(=O)[C@H](Cc1c[nH]cn1)NC(=O)[C@H](Cc1ccccc1)NC(=O)OC(C)(C)C)C(O)C(=O)OC(C)C (some centres unmarked) [Example 1]
140 nM	CC(C)C[C@H](NC(=O)[C@H](Cc1c[nH]cn1)NC(=O)C(Cc1cccc2ccccc12)Cc1cccc2ccccc12)[C@@H](O)C(=O)OC(C)C [Example 1b, [2R-[2R*,3S*(S*)]]-2-hydroxy-3-[[-3-(1H-imidazol-4-yl)-2-[[3-(1-naphthalenyl)-2-(1-naphthalenylmethyl)-1-oxopropyl]amino]-1-oxopropyl]amino]-5-methylhexanoic acid, 1-methylethyl ester]
